Test results: patent US8501691B2, “Methods for treatment of headaches by administration of oxytocin” (The Board of Trustees of the Leland Stanford Junior …, priority 2005, dated 2013)

Tests used:
[1] = tested on: daily migraine; test: Intranasal oxytocin in a patient, pain rating on VAS (0-10); assay type: in vivo, human; details: 24 IU intranasal, baseline pain rating 4 out of 10
Procedure: (§1) Upon presentation at the clinic, a patient is asked for a pain assessment (0-10 rating on VAS). The VAS is an 11-point numerical pain rating scale wherein 0 equals “no pain” and 10 equals the “worst pain imaginable”. The analgesic agent is self-administered by nasal applicator. Initially, one puff is given in each nostril. After waiting 15 minutes the patient is asked again for a pain rating and any side effects (e.g. sedation) are assessed. If pain is still present, another puff per nostril is self-administered. After another 15 minutes, pain and side-effects are assessed. If pain is still present, two mote puffs of agent are self-administered. After 15 minutes, pain is rated again, and side effects are assessed. If pain is still present, a final two puffs are given. After another 15 minutes and at 15, 30 and 60 minutes after that, pain and side-effects are re-assessed.
A patient was seen after reporting a daily migraine which they rated as a mild to moderate headache with a pain rating of 4 out of 10 as assessed by the procedure described herein. The patient was treated with oxytocin administered intranasally at a dose of 24 IU. The patient reported that the oxytocin decreased the pain to a rating of 2 out of 10.

[2] = tested on: severe headaches secondary to adult hydrocephalus and multiple shunt surgeries; test: as above; assay type: in vivo, human
Procedure: as §1
The patient's pain had been unrelieved by treatment with triptans, ergotamines, and high-dose opiates. The patient presented with a pain rating of 8 out of 10 as assessed by the procedure described herein. The patient self-administered oxytocin intranasally at a dose of 4 IU in 0.2 ml. […] Pain relief lasted approximately 24 hours, only briefly interrupted by mild head pain that occurred with activity.
This patient returned to the clinic approximately 1 month later. At this appointment the patient rated the pain as an 8 out of 10. Unbeknownst to them, the patient was first given an intranasal administration of normal saline, in approximately the same volume as used for the oxytocin administration (0.2 ml). No analgesic or other effect was reported by the patient. After waiting 30 minutes, the patient was administered 4 IU of oxytocin intranasally as described above. Within 20-25 minutes, the patient reported that the pain was completely gone. […] Pain returned approximately 24 hours after treatment.

[3] = tested on: trigeminal nucleus caudalis wide dynamic range (WDR) neurons; test: Electrical stimulation-induced responses, single unit extracellular recordings in trigeminal nucleus caudalis; assay type: in vivo, rat
Procedure: Male Sprague-Dawley rats (Charles River Laboratories) were anesthetized with isoflurane and used in the following experiments. In the anesthetized rats, single unit, extracellular recordings were performed in trigeminal nucleus caudalis while stimulating the ipsilateral facial skin with constant-current bipolar electrical stimulation. Epoxylate-insulated, tungsten microelectrodes (10 MOhm) were used under stereotaxic coordinate control.
Shown are responses (action potentials per 30 stimuli) to repeated stimulation of a rat's face before oxytocin administration (pre-oxytocin). After administration with oxytocin at approximately 0.1 IU, responses were recorded every five minutes for 65 minutes. A second administration of oxytocin at the same dosage was administered at approximately 70 minutes after the first dose. The approximate site of the administration of the electrical stimulation is indicated by the black spot on a map of the rat's face (FIG. 3B).

[4] = tested on: Sprague-Dawley rats; test: Withdrawal latencies after noxious thermal (laser) stimulation to the ears or hindpaws after intranasal administration; assay type: in vivo, rat; details: 10 μg intranasal, tested five minutes after final application
Text: Activity of an analgesic agent can be tested in a rat model by studying treatment-induced changes in latencies (times) of withdrawal in response to noxious heating of the skin, typically applying a stimulus to an ear or a hindpaw. Thus, application of coherent or non-coherent (non-laser) radiant heat to the ear or hindpaw will elicit rapid withdrawal movements. […] Transmucosal or transdermal administration of analgesic agents can be tested for regional and/or systemic analgesia. After administration of an analgesic agent an increase in latency to withdrawal time of the ear would indicate regional analgesia. A change in the latency to withdrawal time of the hindpaw would indicate whether there was a systemic analgesic effect, i.e. no change in the latency to withdrawal time indicates no systemic effect, while an increase in latency to withdrawal time would indicate a systemic effect.
Rats are housed in a 12/12-hour light/dark environment and are provided food and water ad libitum. […]
Sprague-Dawley rats (Charles River Laboratories) were lightly anesthetized with urethane and placed with minimal restraint on a heating pad to maintain their body temperature at 37° C. […] Baseline withdrawal latencies were measured by delivering 4 separate stimuli with a resting period of approximately 15 minutes between each stimulus. […] As described above, testing sessions were videotaped and analyzed. […]

[5] = tested on: “cluster” headache; test: Intranasal oxytocin in a patient with headache; assay type: in vivo, human; details: 16 IU intranasal
Procedure: as §1
A patient was seen reporting having an ongoing strong headache with occasional boring pain on the left side. The pain had lasted for more than 2 weeks and had been diagnosed as a “cluster” headache. The patient was treated with oxytocin administered intranasally at a dose of 16 IU. The patient reported that their headache completely resolved within 15 minutes and relief lasted for 24 hours.

[6] = tested on: “hangover” headache; test: Intranasal oxytocin in a patient, pain rating on VAS (0-10); assay type: in vivo, human; details: 24 IU intranasal, baseline 8 out of 10
Procedure: as §1
A patient was seen reporting a “hangover” headache which was rated as an 8 out of 10 as assessed by the procedure described herein. The patient was treated with oxytocin administered intranasally at a dose of 24 IU. The patient reported that the headache completely resolved within 15 minutes.

[7] = tested on: “stress” or tension headache; assay type: in vivo, human; details: 4 IU in 0.2 ml intranasal
Procedure: as §1
A patient was seen reporting a “stress” or tension headache for which they rated their head pain as a 5 out of 10 as assessed by the procedure described herein. The patient was treated with oxytocin administered intranasally at a dose of 4 IU in 0.2 ml. Approximately 10-15 minutes after administration, the patient reported that the pain was completely gone. […] The patient reported being pain free for approximately 48 hours.

[8] = tested on: single pain sensing nerve cells in the trigeminal ganglion; test: Trigeminal ganglion nerve impulses in response to noxious laser pulses to the face; assay type: in vivo, rat; details: 10 nmoles applied to the nose, post- vs pre-oxytocin
Procedure: Sprague-Dawley rats (Charles River Laboratories) were anesthetized with isofluorane and a platinum electrode was inserted transcranially into the trigeminal ganglion. Nerve impulses (action potential) were recorded from single pain sensing nerve cells in the trigeminal ganglion in response to application of noxious laser pulses to the face of the rats. After recording responses to several identical laser pulses, 10 nmoles of oxytocin was applied to the nose of the rats. Thereafter, identical laser pulses were once again applied and recorded.

[9] = first visit, 4 IU in 0.2 ml intranasal
[10] = first visit, 4 IU intranasal, baseline pain rating 8 out of 10
[11] = approximately 0.1 IU intranasal, first administration
[12] = second dose, same dosage, approximately 70 minutes after the first

## CC[C@H](C)[C@@H]1NC(=O)[C@H](Cc2ccc(O)cc2)NC(=O)[C@@H](N)CSSC[C@@H](C(=O)N2CCC[C@H]2C(=O)N[C@@H](CC(C)C)C(=O)NCC(N)=O)NC(=O)[C@H](CC(N)=O)NC(=O)[C@H](CCC(N)=O)NC1=O [oxytocin, Cys-Tyr-Ile-Gln-Asn-Cys-Pro-Leu-Gly]
[1]
  pain rating after treatment: 2 out of 10
[2]; [9]
  sedation: mild sedation
  time for sedation to clear: ≤ 10 min
  time to onset of sedation: ≤ 5 min
[2]; first visit, 4 IU intranasal
  breast tenderness the day after treatment: some breast tenderness
  duration of pain relief: approximately 24 hours
  time for breast tenderness to resolve: ≤ 24 h
[2]; [10]
  headache pain by 15 minutes after administration: significantly reduced
  time until pain completely gone: ≤ 30 min
[2]; second visit about 1 month later, 4 IU intranasal 30 minutes after saline, baseline 8 out of 10
  time until pain completely gone: 20 to 25 min
[2]; second visit, 4 IU intranasal
  breast tenderness the following day: nor was there any breast tenderness
  sedation: no observed sedation
  time until pain returned after treatment: approximately 24 hours
[3]; [11]
  responses (action potentials per 30 stimuli) after first administration: significant reduction in responses
  time of beginning of reduction in responses after first administration: 10 min
  time post treatment until which reduction continued (responses then began to increase): 50 min
[3]; [12]
  responses (action potentials per 30 stimuli) after second administration: significant reduction in responses
  time to reduction in responses after second administration: ≤ 10 min
[4]; laser to ears
  regional analgesic effect (ear withdrawal latency): achieved a regional analgesic effect in the head region
[4]; laser to hindpaws
  systemic analgesic effect (hindpaw withdrawal latency): without a systemic analgesic effect at the hindpaw
[5]
  duration of relief: 24 h
  time until headache completely resolved: ≤ 15 min
[6]
  time until headache completely resolved: ≤ 15 min
[7]
  duration pain free: approximately 48 hours
[7]; baseline pain 5 out of 10
  time until pain completely gone: 10 to 15 min
[8]
  neuronal response to noxious laser pulses (average nerve impulses per laser pulse): significantly (p<0.05) reduced
